Where “and” joins values, the source holds several entries; their conditions need not be identical. Equal values may be shown once.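 Values below derive from 48-hour exposures of cells grown in 96-well plates, with endpoints linearly interpolated between the two concentrations bracketing the appropriate inhibition level. Abbreviation: GI50, concentration required for 50% inhibition of growth. TGI is the concentration that stops growth completely.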

Assay in all cases: NCI anticancer screen, dose series, 48 h
Test [1] deals with HL-60(TB) leukemia.
For test [2], the system named is IGROV1 ovarian.
Test [3] relates to K-562 leukemia.
The subject of test [4] is MALME-3M melanoma.
Test [5] has as its system NCI-H460 lung.
Test [6] has as its system NCI-H522 lung.
The test system of test [7] is SF-295 CNS.
Test [8] concerns SK-OV-3 ovarian.
In test [9] the test system is SN12C renal.
Test [10] concerns SW-620 colon.

For the molecule `CCOc1ccc(Nc2c3ccccc3nc3ccccc23)cc1`, the GI50 in test [1] is 1.58 µM and 0.545 µM; in test [2], 0.758 µM and 0.32 µM; in test [3], 0.316 µM and 0.0616 µM; in [4] it was 0.806 µM and 0.468 µM; in [5] it was 0.407 µM and 0.347 µM; in [6], 0.214 µM and 0.319 µM. The GI50 in test [7] was 0.228 µM and 0.219 µM; in test [8], 0.501 µM and 0.323 µM; in [9], 1.08 µM and 1 µM; in test [10], 0.369 µM and 0.339 µM. For the same molecule, the TGI is 5.15 µM and 2.54 µM in test [1]; 14.9 µM and 13.4 µM in [2]; 4.1 µM and 3.45 µM in [4]; 3.03 µM and 1.82 µM in test [5]; 1.44 µM and 11.8 µM in test [6]; 1.11 µM and 0.956 µM in test [7]. Moreover, the TGI is 6.06 µM and 7.73 µM in test [8]; 14.5 µM and 9.76 µM in [9]; 5.2 µM and 4.02 µM in [10].
Turning to `Nc1cc(-c2ccc(Cl)cc2)nn1-c1nnc(/C=C/c2ccco2)c(=O)[nH]1`, the GI50 is 4.23 µM in test [1]; 4.89 µM in test [2]; 2.98 µM in [3]; 7.44 µM in [4]; 2.15 µM in test [5]; 8.95 µM in test [6]. For the same molecule, the GI50 in test [7] is 2.1 µM; in [8] it was 6.09 µM; in test [9], 18.5 µM; in [10], 5 µM. Besides, the TGI was > 28.6 µM in test [1]; 37.8 µM in test [2]; > 48 µM in test [3]; 54.6 µM in test [4]; 15.3 µM in test [5]; 40.3 µM in [6]. Also, the TGI is 27.7 µM in test [7], > 86.2 µM in test [8], > 100 µM in test [9] and > 100 µM in test [10].
`Cc1cccc(N(CC(=O)O)S(=O)(=O)c2ccccc2)c1`: the TGI in test [1], in [2], in test [3], in test [4], in test [5] and in test [6] was > 100 µM throughout. The TGI in test [7], in test [8], in [9] and in [10] was > 100 µM throughout.
For `COc1ccc(C2Oc3c(c(O)cc4c3[C@H](c3ccc(O)cc3O)[C@H](O)C(c3ccc(O)c(O)c3)O4)C[C@@H]2O)cc1O` (some centres undefined), the TGI in [1], in test [2], in test [3], in test [4], in [5] and in test [6] was > 100 µM each time. Also, the TGI in test [7], in test [8], in test [9] and in test [10] was > 100 µM each time.
As to `C=C1C2Oc3ccccc3C1N(c1ccccc1)O2` (centres undefined), the TGI in test [1] was > 100 µM; in test [2], > 100 µM; in test [3] it was > 100 µM; in [4] it was > 100 µM; in [5], 55.5 µM; in test [6] it was 80.8 µM. Moreover, the TGI in test [7] is 62.7 µM; in [8] it was > 100 µM; in test [9], 88.1 µM; in test [10], > 100 µM.
`COc1ccc2c(NCCCCCCNc3c4ccccc4nc4cc(OC)ccc34)c3ccccc3nc2c1`: the TGI was 0.379 µM in test [1]; 0.339 µM in test [2]; 0.304 µM in test [3]; 2.55 µM in [4]; 1.1 µM in test [5]; 0.34 µM in [6]. The TGI was found to be 2.04 µM in test [7], 2.04 µM in test [8], 1.49 µM in test [9] and 1.08 µM in test [10].
Take `COC(=O)C1C(=O)N(CCc2c[nH]c3ccccc23)C[C@@H]2CCC(=O)C[C@H]12` (some centres undefined): the TGI in [1], in [2], in test [3], in test [4], in test [5] and in test [6] was > 100 µM in each case. Moreover, the TGI in [7], in [8], in test [9] and in [10] was > 100 µM in each case.
For the molecule `Cc1c(C(=O)/C=C/c2ccccc2[N+](=O)[O-])[n+](=O)c2ccccc2n1[O-]`, the TGI in test [1] amounted to 5.71 µM; in test [2], 29.9 µM; in test [3] it was 30.6 µM; in test [4], 27.8 µM; in test [5], 22.5 µM; in test [6], 19.1 µM. Further, the TGI came to 20.4 µM in test [7], 31.8 µM in test [8], 18.6 µM in test [9] and 17.5 µM in test [10].
For `N#Cc1c(-c2ccco2)cc(-c2ccccc2)[nH]c1=O`, the TGI in [1], in [2], in [3], in test [4], in test [5] and in test [6] was > 100 µM throughout. In addition, the TGI in test [7], in test [8], in [9] and in test [10] was > 100 µM in each case.
Take `COc1cc2nc(-c3ccc(C(F)(F)F)cc3)cc(OCCCN3CCCC3)c2cc1OC`: the GI50 was 1 µM in [1]; 0.593 µM in test [2]; 0.445 µM in [3]; 1.66 µM in test [4]; 0.597 µM in test [5]; 1.15 µM in test [6]. Further, the GI50 in [7] is 0.393 µM; in [8], 6.65 µM; in test [9], 0.558 µM; in [10], 2.59 µM. Besides, the TGI came to 5.86 µM in [1]; 14.5 µM in [2]; 4.54 µM in [3]; 5.59 µM in test [4]; 19.6 µM in test [5]; 25.8 µM in [6]. The TGI is 1.64 µM in test [7], > 53.4 µM in test [8], > 42.7 µM in [9] and 29.6 µM in test [10].
Turning to `COC(=O)c1ccc2c(c1)C(=O)c1c-2n(CCCN=[N+]=[N-])c(=O)c2cc([N+](=O)[O-])ccc12`, the GI50 in test [1] is > 100 µM; in test [2] it was 21 µM; in [3], 48 µM; in [4], 63 µM; in [5], 38.1 µM; in [6] it was 34.3 µM. The GI50 in test [7] is 59.8 µM; in test [8], 35.3 µM; in test [9], > 100 µM; in [10], > 100 µM. For the same molecule, the TGI in test [1], in [2], in test [3], in test [4], in [5] and in test [6] was > 100 µM throughout. For the same molecule, the TGI in test [7], in test [8], in test [9] and in [10] was > 100 µM each time.

Source of the values: PubChem BioAssay (NCI).
